Assay results: the C3SDB collision cross section collection
Where “and” joins values, the source holds several entries; their conditions need not be identical. Equal entries are not always repeated.

Assays:
[1] = instrument: DT, single field, calibrated with Agilent tune mix (Agilent)
[2] = instrument: DT, single field
[3] = instrument: DT, stepped-field

collision cross section (N2) ([1]; [M+NH4]+) [Å²] | collision cross section (N2) ([2]; [M+NH4]+) | collision cross section (N2) ([2]; [M+Na]+) | Compound | other results
257.9 | 257.59 Å² and 259.54 Å² |  | CCCC/C=C\C/C=C\CCCCCCCC(=O)O[C@@H](CO)COC(=O)CCCCCCCCCCCCCCCC [DG(34:2)] | 
 |  |  | C=CCCCCCCCCCCCCC(=O)O[C@H](COC(=O)CCCCCCCCCCCCCCC)COP(=O)([O-])OCC[N+](C)(C)C [PC(31:1)] | collision cross section (N2) ([3]; [M+K]+): 286.5 Å²; collision cross section (N2) ([2]; [M+H]+): 276.07 Å²
 |  |  | CCCCCCCCCCCCC=CC[C@@H](O)[C@H](COP(=O)([O-])OCC[N+](C)(C)C)NC(=O)CCCCCCCCCCCCCCCC [SM(35:1)] | collision cross section (N2) ([1]; [M+H]+): 285.1 Å²; collision cross section (N2) ([1]; [M+Na]+): 285.6 Å²; collision cross section (N2) ([3]; [M+Na]+): 289.1 Å²; collision cross section (N2) ([2]; [M+H]+): 284.31 Å²
 |  |  | CCCCCCCCCCCCC=CC[C@@H](O)[C@H](COP(=O)([O-])OCC[N+](C)(C)C)NC(=O)CCCCCCCCCCCCCCCCCCC [SM(38:1)] | collision cross section (N2) ([1]; [M+HCOO]-): 292.1 Å²; collision cross section (N2) ([3]; [M+Na]+): 298.5 Å²; collision cross section (N2) ([2]; [M+H]+): 293.47 Å²
 |  |  | CCCCCCCCCCCCC=CC[C@@H](O)[C@H](COP(=O)([O-])OCC[N+](C)(C)C)NC(=O)CCCCCCCCCCCCCCCCCCCCCC [SM(41:1)] | collision cross section (N2) ([1]; [M+HCOO]-): 300.3 Å²; collision cross section (N2) ([1]; [M+H]+): 302.9 Å²; collision cross section (N2) ([1]; [M+Na]+): 302.8 Å²; collision cross section (N2) ([3]; [M+Na]+): 306.3 Å²; collision cross section (N2) ([2]; [M+H]+): 302.5 Å²
 |  |  | CCCCCCCCCCCCC=CC[C@@H](O)[C@H](COP(=O)([O-])OCC[N+](C)(C)C)NC(=O)CCCCCCCCCCCCCCCCCCCCCCC [SM(42:1)] | collision cross section (N2) ([1]; [M+HCOO]-): 303 Å²; collision cross section (N2) ([3]; [M+Na]+): 309.3 Å²; collision cross section (N2) ([2]; [M+H]+): 304.96 Å²
 |  |  | CCCCCCCCCCCCC=CCC=CCC=CCC=CCC(=O)N[C@@H](COP(=O)([O-])OCC[N+](C)(C)C)[C@H](O)CC=CCCCCCCCCCCCC [SM(43:5)] | collision cross section (N2) ([2]; [M+H]+): 301.97 Å²
 | 282.64 Å² and 284.9 Å² | 280.45 Å² and 283.77 Å² | CCCCCC/C=C\CCCCCCCC(=O)OC[C@@H](COC(=O)CCCCCCCCCCC)OC(=O)CCCCCCCCCCC [TG(40:1)] | 
288.5 | 289.72 Å² and 292.07 Å² and 292.03 Å² | 288.53 Å² and 291.03 Å² | CCCCCCCC/C=C\CCCCCCCC(=O)OC[C@@H](COC(=O)CCCCCCCCCCC)OC(=O)CCCCCCCCCCC [TG(42:1)] | 
 |  | 302.27 Å² and 304.44 Å² | CCCCCCCCCC/C=C\CCCCCCCCCC(=O)OC[C@@H](COC(=O)CCCCCCCCCCC)OC(=O)CCCCCCCCCCC [TG(46:1)] | 
300.4 | 300.67 Å² and 303.01 Å² | 299.74 Å² and 302.02 Å² | CCCCCCC/C=C\CCCCCCCC(=O)OC[C@@H](COC(=O)CCCCCCCCCCC)OC(=O)CCCCCCC/C=C\CCCCCCC [TG(46:2)] | 
310.9 |  | 308.88 Å² and 310.77 Å² | CCCCCCCCCC/C=C\CCCCCCCCCC(=O)OC[C@@H](COC(=O)CCCCCCCCCCCC)OC(=O)CCCCCCCCCCCC [TG(48:1)] | 
307.8 | 308.33 Å² and 309.79 Å² and 313.23 Å² | 308.93 Å² | CCCCC/C=C\CCCCCCCC(=O)OC[C@H](COC(=O)CCCCCCC/C=C\CCCCCCCCC)OC(=O)CCCCCCC/C=C\CCCCC [TG(49:3)] | 
 |  | 315.05 Å² and 316.8 Å² | CCCCCCCCCC/C=C\CCCCCCCCCC(=O)OC[C@@H](COC(=O)CCCCCCCCCCCCC)OC(=O)CCCCCCCCCCCCC [TG(50:1)] | 
 |  | 317.97 Å² and 320.06 Å² | CCCCCCCCC/C=C\CCCCCCCC(=O)OC[C@@H](COC(=O)CCCCCCCCCCCCCCC)OC(=O)CCCCCCCCCCCCCCC [TG(51:1)] | 
323.4 | 323.2 Å² and 325.31 Å² | 323.38 Å² | CCCCCCCCCCCCCCCCCCCC(=O)OC[C@@H](COC(=O)CCCCCCCCCCC)OC(=O)CCCCCCCCCCCCCCCCCCC [TG(52:0)] | 
320.2 | 318.16 Å² and 320.59 Å² and 322.8 Å² | 317.01 Å² and 319.26 Å² | CCCC/C=C\CCCCCCCC(=O)OC[C@H](COC(=O)CCCCCCC/C=C\CCCCCCCCC)OC(=O)CCCCCCC/C=C\CCCCCCCCC [TG(52:3)] | 
323.6 |  | 321.52 Å² and 323.87 Å² | CCCCCCCC/C=C\CCCCCCCCCC(=O)OC[C@@H](COC(=O)CCCCCCCCCCCC)OC(=O)CCCCCCCCC/C=C\CCCCCCCC [TG(53:2)] | 
 |  | 319.33 Å² and 321.38 Å² | CCCCC/C=C\CCCCCCCC(=O)OC[C@H](COC(=O)CCCCCCC/C=C\CCCCCCCCC)OC(=O)CCCCCCC/C=C\CCCCCCCCC [TG(53:3)] | 

collision cross section (N2) ([1]; [M+NH4]+) [Å²] | collision cross section (N2) ([2]; [M+NH4]+) | collision cross section (N2) ([2]; [M+Na]+) | Compound | other results
317.4 | 317.8 Å² and 320.46 Å² and 322.68 Å² |  | CCCCC/C=C\C/C=C\C/C=C\C/C=C\CCCCCC(=O)OC[C@@H](COC(=O)CCCCCCCCCCCCC)OC(=O)CCCCCCC/C=C\CCCCCCC [TG(53:5)] | 
328.4 |  | 325.86 Å² and 328.61 Å² | CCCC/C=C\CCCCCCCC(=O)OC[C@H](COC(=O)CCCCCCCCCCCCCCCCCCC)OC(=O)CCCCCCCCCCCCCCCCCCC [TG(54:1)] | 
326.5 | 324.13 Å² and 326.41 Å² and 329.85 Å² | 322.77 Å² and 324.86 Å² | CCCC/C=C\CCCCCCCC(=O)OC[C@H](COC(=O)CCCCCCCCC/C=C\CCCCCCCC)OC(=O)CCCCCCCCC/C=C\CCCCCCCC [TG(54:3)] | 
319.9 |  | 316.05 Å² and 318.28 Å² | CC/C=C\C/C=C\C/C=C\C/C=C\CCCCC(=O)O[C@H](COC(=O)CCCCCCC/C=C\CCCCCCC)COC(=O)CCCCCCC/C=C\CCCCCCCCC [TG(54:6)] | 
 | 334.9 Å² and 337.31 Å² and 332.94 Å² |  | CCCCC/C=C\CCCCCCCC(=O)OC[C@H](COC(=O)CCCCCCCCCCCCCCCCCCC)OC(=O)CCCCCCCCCCCCCCCCCCC [TG(55:1)] | 
327.5 | 330.49 Å² and 333.23 Å² and 328.28 Å² |  | CCCCC/C=C\CCCCCCCC(=O)OC[C@H](COC(=O)CCCCCCCCC/C=C\CCCCCCCC)OC(=O)CCCCCCCCC/C=C\CCCCCCCC [TG(55:3)] | 
326 | 328.36 Å² and 330.81 Å² and 326.47 Å² |  | CCCCC/C=C\C/C=C\C/C=C\C/C=C\CCCCCC(=O)OC[C@@H](COC(=O)CCCCCCCCCCC)OC(=O)CCCCCCCCCCCCCCCCCCCC [TG(55:4)] | 
332.8 |  | 332.96 Å² | CCCCCCCCCC/C=C\CCCCCCCCCC(=O)OC[C@@H](COC(=O)CCCCCCCCCCC)OC(=O)CCCCCCCCC/C=C\CCCCCCCCCC [TG(56:2)] | 
325.6 | 323.28 Å² and 324.75 Å² |  | CC/C=C\C/C=C\C/C=C\C/C=C\C/C=C\CCCC(=O)OC[C@@H](COC(=O)CCCCCCCCCCCCCCCCC)OC(=O)CCCC/C=C\C/C=C\C/C=C\CCCCC [TG(56:8)] | 
 | 321.77 Å² |  | CC/C=C\C/C=C\C/C=C\CCCCCCCC(=O)O[C@@H](COC(=O)CCC/C=C\C/C=C\C/C=C\C/C=C\CCCCC)COC(=O)CCCCCCC/C=C\C/C=C\CCCCC [TG(56:9)] | 
 | 340.07 Å² and 342.55 Å² |  | CCCCCCCCC/C=C\CCCCCCCC(=O)OC[C@@H](COC(=O)CCCCCCCCCCCCCCCCCC)OC(=O)CCCCCCCCCCCCCCCCCC [TG(57:1)] | 
 | 342.62 Å² and 345.63 Å² and 341.8 Å² |  | CCCC/C=C\CCCCCCCC(=O)OC[C@H](COC(=O)CCCCCCCCCCCCCCCCCCCCC)OC(=O)CCCCCCCCCCCCCCCCCCCCC [TG(58:1)] | 
336.8 | 339.23 Å² and 342.34 Å² and 337.3 Å² |  | CCCCC/C=C\C/C=C\C/C=C\CCCCCCC(=O)O[C@H](COC(=O)CCCCCCCCCCCCCCC)COC(=O)CCCCCCCCCCCCCCCCCCCCC [TG(58:3)] | 
336.6 | 340.43 Å² and 336.2 Å² |  | CCCCC/C=C\C/C=C\C/C=C\CCCCCCCCC(=O)OC[C@@H](COC(=O)CCCCCCC/C=C\CCCCCCC)OC(=O)CCCCCCCCCCCCCCCCCC [TG(58:4)] | 
330 | 328.42 Å² and 327.73 Å² | 329.2 Å² | CC/C=C\C/C=C\C/C=C\C/C=C\C/C=C\CCCCCC(=O)OC[C@@H](COC(=O)CCCCCCC/C=C\CCCCCC)OC(=O)CCCCCC/C=C\C/C=C\C/C=C\CCCCC [TG(58:9)] | 
327.2 | 327.44 Å² |  | CC/C=C\C/C=C\C/C=C\C/C=C\C/C=C\CCCCCC(=O)OC[C@@H](COC(=O)CCCCCCCCCCCCCCC)OC(=O)CCC/C=C\C/C=C\C/C=C\C/C=C\C/C=C\CC [TG(58:10)] | 
 | 340.53 Å² and 343 Å² |  | CCCCC/C=C\C/C=C\C/C=C\CCCCCCCCC(=O)OC[C@@H](COC(=O)CCCCCCCCCCCCCCCCC)OC(=O)CCCCCCC/C=C\CCCCCCCCC [TG(59:4)] | 
 | 339.13 Å² |  | CCCCC/C=C\C/C=C\C/C=C\C/C=C\CCCC(=O)O[C@@H](COC(=O)CCCCCCCCCCC/C=C\C/C=C\CCCCC)COC(=O)CCCCCCCCCCCCCCCC [TG(59:6)] | 
339.4 | 344.42 Å² |  | CCCCC/C=C\C/C=C\C/C=C\CCCCCCCCC(=O)OC[C@@H](COC(=O)CCCCCCCCCCCCCCCCC)OC(=O)CCCCCCCCC/C=C\C/C=C\CCCCC [TG(60:5)] | 
